How the values were obtained:
B. subtilis 168 [1] = assay: fitness (endpoint OD595 vs no drug) (fraction); higher = more growth
Summary of the method: (§1)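 Fitness compares growth at the stationary-phase transition with the robust mean of no-drug control wells, as a ratio of optical densities. The ratio is capped at 1. Wells of 384-well plates held 30 µl, or 55 µl for S. pneumoniae, inoculated at OD595 0.01. Readings at OD595 every 30 min for 14 h at 37 °C were corrected against the first reading.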

S. aureus DSM 20231 [2] = assay: as above
Summary of the method: as §1

S. aureus Newman [3] = assay: as above
Summary of the method: as §1

S. pneumoniae D39V [4] = assay: as above
Summary of the method: as §1

B. subtilis 168 [5] = assay: Bliss interaction score (quartile over a dose matrix) (fitness difference); higher = more antagonism (negative = synergy)
Summary of the method: (§2)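 The Bliss score is observed minus expected fitness under the product model, reported as quartiles over technical, biological and donor/recipient replicates. Fitness is the OD595 at entry into stationary phase divided by the plate's robust no-drug mean and capped at 1. Single-drug fitness was inferred from combination data.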

S. aureus DSM 20231 [6] = assay: as above
Summary of the method: as §2

S. aureus Newman [7] = assay: as above
Summary of the method: as §2

S. pneumoniae D39V [8] = assay: as above
Summary of the method: as §2
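For Bliss interaction score (quartile over a dose matrix) in this document: first quartile when negative (synergy) and third quartile when positive (antagonism).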

CCC[C@@H]1C[C@@H](C(=O)N[C@@H]([C@H]2O[C@H](SC)[C@H](O)[C@@H](O)[C@H]2O)[C@H](C)Cl)N(C)C1 [Clindamycin] + O=C(O[C@@H]1Cc2c(O)cc(O)cc2O[C@@H]1c1cc(O)c(O)c(O)c1)c1cc(O)c(O)c(O)c1 [EGCG]
fitness, B. subtilis 168 [1], one replicate
Settings | first compound 0.0039 µg/mL | first compound 0.0078 µg/mL | first compound 0.0156 µg/mL
partner 6.25 µg/mL | 0.986 | 0.862 | 0.85
partner 12.5 µg/mL | 0.511 | 0.402 | 0.383
partner 25 µg/mL | 0.401 | 0.362 | 0.374

fitness
Settings | partner 6.25 µg/mL | partner 12.5 µg/mL | partner 25 µg/mL | partner 50 µg/mL
B. subtilis 168 [1], first compound 0.25 µg/mL | 0.356 | 0.337 | 0.119 | –
S. aureus DSM 20231 [2], first compound 0.0312 µg/mL | – | 0.485 | 0.49 | 0.416
S. aureus DSM 20231 [2], first compound 0.0625 µg/mL | – | – | 0.172 | 0.115
S. aureus DSM 20231 [2], first compound 0.125 µg/mL | – | 0.0823 | 0.0417 | 0.0383
S. aureus Newman [3], first compound 0.0312 µg/mL | – | 0.603 | 0.587 | 0.598
S. aureus Newman [3], first compound 0.125 µg/mL | – | – | 0.0771 | 0.046
S. pneumoniae D39V [4], first compound 0.0125 µg/mL | – | 0.703 | 0.686 | 0.605
S. pneumoniae D39V [4], first compound 0.015 µg/mL | – | 0.734 | 0.661 | 0.538
S. pneumoniae D39V [4], first compound 0.025 µg/mL | – | 0.466 | 0.405 | 0.392
S. pneumoniae D39V [4], first compound 0.03 µg/mL | – | 0.466 | 0.414 | 0.3
S. pneumoniae D39V [4], first compound 0.05 µg/mL | – | 0.173 | 0.168 | 0.178
S. pneumoniae D39V [4], first compound 0.06 µg/mL | – | 0.312 | 0.315 | 0.22

Settings | Bliss interaction score
B. subtilis 168 [5] | 0.136
S. aureus DSM 20231 [6] | 0.0371
S. aureus Newman [7] | -0.0691
S. pneumoniae D39V [8] | -0.108

O=C(O[C@@H]1Cc2c(O)cc(O)cc2O[C@@H]1c1cc(O)c(O)c(O)c1)c1cc(O)c(O)c(O)c1 [EGCG] + CC1=C\[C@@H](O)CC(=O)Cc2nc(co2)C(=O)N2CCC=C2C(=O)O[C@H](C(C)C)[C@H](C)/C=C/C(=O)NC\C=C\1 [Virginiamycin M1]
fitness
Settings | partner 0.0625 µg/mL | partner 0.125 µg/mL | partner 0.25 µg/mL | partner 0.5 µg/mL | partner 1 µg/mL | partner 2 µg/mL
B. subtilis 168 [1], first compound 6.25 µg/mL | 0.973 | 0.974 | 0.997 | – | – | –
S. aureus DSM 20231 [2], first compound 12.5 µg/mL | 0.86 | 0.931 | 0.686 | – | – | –
S. aureus DSM 20231 [2], first compound 25 µg/mL | 0.859 | ≥ 1 | 0.904 | – | – | –
S. aureus DSM 20231 [2], first compound 50 µg/mL | 0.76 | 0.986 | 0.82 | – | – | –
S. aureus Newman [3], first compound 12.5 µg/mL | 0.811 | 0.858 | 0.817 | – | – | –
S. aureus Newman [3], first compound 25 µg/mL | 0.868 | 0.897 | 0.865 | – | – | –
S. aureus Newman [3], first compound 50 µg/mL | 0.925 | 0.96 | 0.878 | – | – | –
S. pneumoniae D39V [4], first compound 12.5 µg/mL | – | – | – | 0.973 | 0.958 | 0.921
S. pneumoniae D39V [4], first compound 25 µg/mL | – | – | – | ≥ 1 | ≥ 1 | 0.89
S. pneumoniae D39V [4], first compound 50 µg/mL | – | – | – | 0.965 | 0.946 | 0.889

fitness, one replicate
Settings | first compound 12.5 µg/mL | first compound 25 µg/mL | first compound 50 µg/mL
S. aureus DSM 20231 [2], partner 0.5 µg/mL | 0.807 | 0.715 | 0.694
S. aureus DSM 20231 [2], partner 1 µg/mL | 0.67 | 0.65 | 0.543
S. aureus Newman [3], partner 0.5 µg/mL | 0.678 | 0.728 | 0.682
S. aureus Newman [3], partner 1 µg/mL | 0.702 | 0.715 | 0.677
S. aureus Newman [3], partner 2 µg/mL | 0.671 | 0.624 | 0.622
S. pneumoniae D39V [4], partner 0.15 µg/mL | 0.891 | 0.872 | 0.883
S. pneumoniae D39V [4], partner 0.3 µg/mL | 0.823 | 0.847 | 0.842

Settings | Bliss interaction score
B. subtilis 168 [5] | 0.0619
S. aureus DSM 20231 [6] | 0.119
S. aureus Newman [7] | 0.0651
S. pneumoniae D39V [8] | -0.092

O=C(O[C@@H]1Cc2c(O)cc(O)cc2O[C@@H]1c1cc(O)c(O)c(O)c1)c1cc(O)c(O)c(O)c1 [EGCG] + CCN(CC)CCOC(=O)c1ccc(N)cc1 [Procaine]
fitness
Settings | partner 85.5 µg/mL | partner 171 µg/mL | partner 342 µg/mL
B. subtilis 168 [1], first compound 6.25 µg/mL | 0.913 | 0.882 | 0.88
B. subtilis 168 [1], first compound 12.5 µg/mL | 0.715 | 0.75 | 0.599
B. subtilis 168 [1], first compound 25 µg/mL | – | – | 0.227
S. aureus DSM 20231 [2], first compound 12.5 µg/mL | 0.821 | 0.821 | 0.833
S. aureus DSM 20231 [2], first compound 25 µg/mL | 0.809 | 0.858 | 0.886
S. aureus DSM 20231 [2], first compound 50 µg/mL | – | 0.854 | –
S. aureus Newman [3], first compound 12.5 µg/mL | 0.729 | 0.764 | 0.77
S. aureus Newman [3], first compound 25 µg/mL | 0.641 | 0.71 | 0.78
S. pneumoniae D39V [4], first compound 12.5 µg/mL | 0.965 | 0.984 | 0.912
S. pneumoniae D39V [4], first compound 25 µg/mL | 0.969 | ≥ 1 | 0.969
S. pneumoniae D39V [4], first compound 50 µg/mL | 0.996 | 0.903 | ≥ 1

Settings | Bliss interaction score
B. subtilis 168 [5] | -0.0744
S. aureus DSM 20231 [6] | 0.0893
S. aureus Newman [7] | -0.124
S. pneumoniae D39V [8] | 0.0572

O=C(O[C@@H]1Cc2c(O)cc(O)cc2O[C@@H]1c1cc(O)c(O)c(O)c1)c1cc(O)c(O)c(O)c1 [EGCG] + CN1C2=CC=CC=C2N=C3C1=CC=CC3=O [Pyocyanin]
fitness
Settings | first compound 6.25 µg/mL | first compound 12.5 µg/mL | first compound 25 µg/mL | first compound 50 µg/mL
B. subtilis 168 [1], partner 1.25 µg/mL | 0.81 | 0.898 | – | –
B. subtilis 168 [1], partner 2.5 µg/mL | 0.831 | 0.805 | 0.638 | –
B. subtilis 168 [1], partner 5 µg/mL | 0.662 | 0.645 | 0.485 | –
S. aureus DSM 20231 [2], partner 1.25 µg/mL | – | 0.677 | 0.689 | –
S. aureus DSM 20231 [2], partner 2.5 µg/mL | – | 0.693 | 0.682 | 0.624
S. aureus DSM 20231 [2], partner 5 µg/mL | – | 0.555 | 0.56 | 0.492
S. aureus Newman [3], partner 1.25 µg/mL | – | 0.679 | 0.616 | –
S. aureus Newman [3], partner 2.5 µg/mL | – | 0.647 | 0.548 | –
S. aureus Newman [3], partner 5 µg/mL | – | 0.403 | 0.409 | 0.315
S. pneumoniae D39V [4], partner 0.325 µg/mL | – | 0.986 | ≥ 1 | ≥ 1
S. pneumoniae D39V [4], partner 0.65 µg/mL | – | 0.976 | 0.98 | 0.925
S. pneumoniae D39V [4], partner 1.3 µg/mL | – | 0.638 | 0.628 | 0.75

Settings | Bliss interaction score
B. subtilis 168 [5] | 0.187
S. aureus DSM 20231 [6] | -0.114
S. aureus Newman [7] | -0.0806
S. pneumoniae D39V [8] | -0.0423

— the supplement of paper PMC10627819
